In PubChem BioAssay (NCI) one finds GI50 and TGI data, which are given here for five compounds.

Some test systems named below: NCI-H226 lung; SK-OV-3 ovarian; HT29 colon; HCC-2998 colon; HCT-116 colon; UO-31 renal; OVCAR-4 ovarian; RPMI-8226 leukemia; OVCAR-8 ovarian; NCI-H460 lung.
Common to all, as to assay: NCI tumour cell line growth inhibition, 48 h

SMILES strings stand for the structures.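 Protocol summary: plate cells (96-well), add compound at 5 concentrations, incubate 48 h, interpolate endpoints linearly. The concentration for 50% growth inhibition is given as GI50. At the TGI there is no net growth.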

On to `O=C(N1CCC(CN=c2cc3n(-c4ccc(Cl)cc4)c4ccccc4nc-3cc2Nc2ccc(Cl)cc2)CC1)N1CC1`, for which the GI50 was 23.6 µM in the test with NCI-H226 lung, 2.25 µM with SK-OV-3 ovarian, 0.204 µM with HT29 colon and 0.632 µM in the test with HCC-2998 colon. Also, the TGI with NCI-H226 lung stood at 74.2 µM; with SK-OV-3 ovarian, 4.64 µM; in the test on HT29 colon it was 0.547 µM; in the test with HCC-2998 colon, 1.58 µM.
As for `CCOc1ccc(N=Nc2ccc3oc(=O)c(/C(C)=N\NC(=O)CC(=O)Nc4ccc(Cl)cc4)cc3c2)cc1`, the TGI was over 100 µM with NCI-H226 lung; 31.5 µM in the test on HCT-116 colon; 36.9 µM with UO-31 renal; 41.8 µM in the test with SK-OV-3 ovarian; 37.9 µM with OVCAR-4 ovarian; 35.2 µM in the test with HCC-2998 colon. For the same compound, the TGI stood at 64.7 µM with RPMI-8226 leukemia and 34.4 µM in the test with OVCAR-8 ovarian.
As to `CCOC(=O)C1(C(=O)OCC)CSC1`, the TGI in the test on NCI-H226 lung was over 100 µM; in the test on HCT-116 colon it was over 100 µM; in the test with UO-31 renal, over 100 µM; in the test on SK-OV-3 ovarian, over 100 µM; with HT29 colon, over 100 µM; with NCI-H460 lung, 1.74 µM. Moreover, the TGI was over 100 µM in the test on OVCAR-4 ovarian, 0.853 µM in the test on HCC-2998 colon and over 100 µM in the test with OVCAR-8 ovarian.
Regarding `CCSc1nc(N2CCCCC2)c2cn[nH]c2n1`, the GI50 is 15.3 µM in the test with NCI-H226 lung; 34 µM in the test with UO-31 renal; over 100 µM with SK-OV-3 ovarian; 66.3 µM with HT29 colon; 20.4 µM in the test on NCI-H460 lung; 88.3 µM with OVCAR-4 ovarian. Besides, the GI50 was 42.6 µM in the test on HCC-2998 colon, 28 µM in the test on RPMI-8226 leukemia and 43.6 µM with OVCAR-8 ovarian. The TGI is 51.3 µM in the test with NCI-H226 lung; over 100 µM in the test on UO-31 renal; over 100 µM in the test with SK-OV-3 ovarian; over 100 µM in the test with HT29 colon; 76.5 µM with NCI-H460 lung; over 100 µM in the test with OVCAR-4 ovarian. In addition, the TGI with HCC-2998 colon, in the test with RPMI-8226 leukemia and in the test on OVCAR-8 ovarian was over 100 µM in each case.
Take `O=C(O)/C=C/c1cnc[nH]1`: the TGI with NCI-H226 lung, in the test on HCT-116 colon, with UO-31 renal, in the test with SK-OV-3 ovarian, with HT29 colon and in the test with NCI-H460 lung was over 500 µM each time. Besides, the TGI in the test with OVCAR-4 ovarian, in the test on HCC-2998 colon, with RPMI-8226 leukemia and in the test on OVCAR-8 ovarian was over 500 µM each time.
